{"source": "ChEMBL document CHEMBL1201862", "about": "“PubChem BioAssay data set” (2004)", "test_in_all_cases": "growth of human tumour cells (NCI), 48 h", "key": {"PC-3": {"system": "PC-3"}, "KM12": {"system": "KM12"}, "BT-549": {"system": "BT-549"}, "IGROV-1": {"system": "IGROV-1"}, "OVCAR-8": {"system": "OVCAR-8"}, "SK-MEL-5": {"system": "SK-MEL-5"}, "T47D": {"system": "T47D"}, "SF-295": {"system": "SF-295"}, "OVCAR-3": {"system": "OVCAR-3"}, "SK-OV-3": {"system": "SK-OV-3"}, "A498": {"system": "A498"}, "MDA-MB-435": {"system": "MDA-MB-435"}, "RXF 393": {"system": "RXF 393"}, "MDA-N": {"system": "MDA-N"}, "M14": {"system": "M14"}, "OVCAR-4": {"system": "OVCAR-4"}, "U-251": {"system": "U-251"}, "OVCAR-5": {"system": "OVCAR-5"}, "NCI-H23": {"system": "NCI-H23"}, "MCF7": {"system": "MCF7"}, "EKVX": {"system": "EKVX"}, "UACC-62": {"system": "UACC-62"}, "A549": {"system": "A549"}, "K562": {"system": "K562"}, "SK-MEL-28": {"system": "SK-MEL-28"}, "HCT-15": {"system": "HCT-15"}, "HCC 2998": {"system": "HCC 2998"}, "786-0": {"system": "786-0"}, "Malme-3M": {"system": "Malme-3M"}, "ACHN": {"system": "ACHN"}, "LOX IMVI": {"system": "LOX IMVI"}, "Hs-578T": {"system": "Hs-578T"}, "DU-145": {"system": "DU-145"}, "HOP-62": {"system": "HOP-62"}, "TK-10": {"system": "TK-10"}, "SN12C": {"system": "SN12C"}, "HT-29": {"system": "HT-29"}, "UACC-257": {"system": "UACC-257"}, "HCT-116": {"system": "HCT-116"}, "SW-620": {"system": "SW-620"}, "CCRF-CEM": {"system": "CCRF-CEM"}, "MDA-MB-231": {"system": "MDA-MB-231"}, "NCI-H522": {"system": "NCI-H522"}, "CAKI-1": {"system": "CAKI-1"}, "RPMI-8226": {"system": "RPMI-8226"}, "SF-268": {"system": "SF-268"}, "SF-539": {"system": "SF-539"}, "COLO 205": {"system": "COLO 205"}, "NCI-H460": {"system": "NCI-H460"}, "UO-31": {"system": "UO-31"}, "NCI-H226": {"system": "NCI-H226"}, "MOLT-4": {"system": "MOLT-4"}, "NCI/ADR-RES": {"system": "NCI/ADR-RES"}, "HL-60": {"system": "HL-60"}, "SNB-19": {"system": "SNB-19"}}, "note": "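Step 1: Grow cells in 96-well plates. Step 2: Expose to compound for 48 hours at 5 concentrations. Step 3: Interpolate endpoints linearly; if unreached, use highest concentration. The concentration for 50% growth inhibition is given as GI50.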 Active and inactive are the calls of the source. Rule as the data show it: active = GI50 up to about 1.1 µM and inactive = higher."}
{"molecule": "CCn1c(CCCc2nc3c(=O)n(C)c(=O)n(C)c3[nH]2)nc2c1c(=O)n(C)c(=O)n2C", "values": [{"measurement": "GI50", "setting": "PC-3", "result": "> 100 µM (inactive)"}, {"measurement": "GI50", "setting": "KM12", "result": "> 100 µM (inactive)"}, {"measurement": "GI50", "setting": "BT-549", "result": "> 100 µM (inactive)"}, {"measurement": "GI50", "setting": "IGROV-1", "result": "> 100 µM (inactive)"}, {"measurement": "GI50", "setting": "OVCAR-8", "result": "> 100 µM (inactive)"}, {"measurement": "GI50", "setting": "SK-MEL-5", "result": "14 µM (inactive)"}, {"measurement": "GI50", "setting": "T47D", "result": "> 100 µM (inactive)"}, {"measurement": "GI50", "setting": "SF-295", "result": "> 100 µM (inactive)"}, {"measurement": "GI50", "setting": "OVCAR-3", "result": "> 100 µM (inactive)"}, {"measurement": "GI50", "setting": "SK-OV-3", "result": "> 100 µM (inactive)"}, {"measurement": "GI50", "setting": "A498", "result": "> 100 µM (inactive)"}, {"measurement": "GI50", "setting": "MDA-MB-435", "result": "> 100 µM (inactive)"}, {"measurement": "GI50", "setting": "RXF 393", "result": "> 100 µM (inactive)"}, {"measurement": "GI50", "setting": "MDA-N", "result": "> 100 µM (inactive)"}, {"measurement": "GI50", "setting": "M14", "result": "> 100 µM (inactive)"}, {"measurement": "GI50", "setting": "OVCAR-4", "result": "> 100 µM (inactive)"}, {"measurement": "GI50", "setting": "U-251", "result": "> 100 µM (inactive)"}, {"measurement": "GI50", "setting": "OVCAR-5", "result": "> 100 µM (inactive)"}, {"measurement": "GI50", "setting": "NCI-H23", "result": "> 100 µM (inactive)"}, {"measurement": "GI50", "setting": "MCF7", "result": "> 100 µM (inactive)"}, {"measurement": "GI50", "setting": "EKVX", "result": "43 µM (inactive)"}, {"measurement": "GI50", "setting": "UACC-62", "result": "> 100 µM (inactive)"}, {"measurement": "GI50", "setting": "A549", "result": "> 100 µM (inactive)"}, {"measurement": "GI50", "setting": "K562", "result": "75.7 µM (inactive)"}, {"measurement": "GI50", "setting": "SK-MEL-28", "result": "> 100 µM (inactive)"}, {"measurement": "GI50", "setting": "HCT-15", "result": "> 100", "unit": "µM"}, {"measurement": "GI50", "setting": "HCC 2998", "result": "> 100 µM (inactive)"}, {"measurement": "GI50", "setting": "786-0", "result": "> 100 µM (inactive)"}, {"measurement": "GI50", "setting": "Malme-3M", "result": "> 100 µM (inactive)"}, {"measurement": "GI50", "setting": "ACHN", "result": "> 100 µM (inactive)"}, {"measurement": "GI50", "setting": "LOX IMVI", "result": "> 100 µM (inactive)"}, {"measurement": "GI50", "setting": "Hs-578T", "result": "> 100 µM (inactive)"}, {"measurement": "GI50", "setting": "DU-145", "result": "> 100 µM (inactive)"}, {"measurement": "GI50", "setting": "HOP-62", "result": "> 100 µM (inactive)"}, {"measurement": "GI50", "setting": "TK-10", "result": "> 100 µM (inactive)"}, {"measurement": "GI50", "setting": "SN12C", "result": "46 µM (inactive)"}, {"measurement": "GI50", "setting": "HT-29", "result": "> 100 µM (inactive)"}, {"measurement": "GI50", "setting": "UACC-257", "result": "> 100 µM (inactive)"}, {"measurement": "GI50", "setting": "HCT-116", "result": "> 100 µM (inactive)"}, {"measurement": "GI50", "setting": "SW-620", "result": "> 100 µM (inactive)"}, {"measurement": "GI50", "setting": "CCRF-CEM", "result": "> 100 µM (inactive)"}, {"measurement": "GI50", "setting": "MDA-MB-231", "result": "> 100 µM (inactive)"}, {"measurement": "GI50", "setting": "NCI-H522", "result": "> 100 µM (inactive)"}, {"measurement": "GI50", "setting": "CAKI-1", "result": "> 100 µM (inactive)"}, {"measurement": "GI50", "setting": "RPMI-8226", "result": "> 100 µM (inactive)"}, {"measurement": "GI50", "setting": "SF-268", "result": "> 100 µM (inactive)"}, {"measurement": "GI50", "setting": "SF-539", "result": "14.9 µM (inactive)"}, {"measurement": "GI50", "setting": "COLO 205", "result": "12.1 µM (inactive)"}, {"measurement": "GI50", "setting": "NCI-H460", "result": "> 100 µM (inactive)"}, {"measurement": "GI50", "setting": "UO-31", "result": "> 100 µM (inactive)"}, {"measurement": "GI50", "setting": "NCI-H226", "result": "14.8 µM (inactive)"}, {"measurement": "GI50", "setting": "MOLT-4", "result": "> 100 µM (inactive)"}, {"measurement": "GI50", "setting": "NCI/ADR-RES", "result": "> 100 µM (inactive)"}, {"measurement": "GI50", "setting": "HL-60", "result": "77.8 µM (inactive)"}, {"measurement": "GI50", "setting": "SNB-19", "result": "> 100 µM (inactive)"}]}
